This is an account of results in ChEMBL document CHEMBL1201862, “PubChem BioAssay data set” (2004).

One test deals with Hs-578T. The test can be described thus: NCI-60 cell line screen, 48 h.
For the next test, the system named is MDA-N. In words: NCI-60 cell line screen, 48 h.

Structures are written as SMILES.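 Five compound concentrations were applied to cells in 96-well plates for 48 hours; endpoints were derived by simple linear interpolation of the resulting dose-response curve. GI50 is the concentration that inhibits growth by half.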 Calls of active or inactive are those of the source. No stated cut-off is given here; in the data, active = GI50 up to about 1.1 µM and inactive = higher.

For the molecule `COc1ccc2c(c1)CCCc1c-2nc2ccccc2c1N`, the GI50 in the test on Hs-578T is 17.8 µM (inactive); in the test on MDA-N, 10.3 µM (inactive).

Turning to `C=C[C@H]1CN2CCc3c([nH]c4c([C@@H]5CCCN5C)c(O)ccc34)[C@@H]2C[C@@H]1C[C@H]1c2[nH]c3ccccc3c2CCN1C`, the GI50 with Hs-578T was 1.52 µM (inactive); with MDA-N, 0.49 µM (active).

On to `O=C(O)c1nn(-c2ccccc2)nc1-c1nn(-c2ccccc2)nc1C(=O)O`, for which the GI50 in the test with Hs-578T and in the test on MDA-N was > 100 µM (inactive) each time.

Take `CCCCCCCCCCCCCCCCOCC(O)CO` (stereo not given): the GI50 is 18.4 µM (inactive) in the test with Hs-578T and 25.7 µM (inactive) in the test with MDA-N.

Turning to `COC(=O)c1ccc(S)c(S(=O)(=O)Nc2nc(N)n[nH]2)c1`, the GI50 with Hs-578T and in the test with MDA-N was > 100 µM (inactive) throughout.

On to `COc1ccc(C(c2cc(OC)c(OC)c(OC)c2)N2C(=O)CCC2C(=O)O)cc1` (stereo not given), for which the GI50 was 62.1 µM (inactive) in the test on Hs-578T and 21.1 µM (inactive) in the test on MDA-N.

`N=C(N)NS(=O)(=O)c1ccc(Nc2c3ccccc3nc3c(C(=O)NCCO)cccc23)cc1`: the GI50 in the test with Hs-578T is 0.209 µM (active); with MDA-N it was 0.267 µM (active).

For `Brc1sc(Br)c2c1[C@H](Br)C[C@@H]2Br`, the GI50 with Hs-578T was 26.3 µM (inactive); in the test on MDA-N, 38.1 µM (inactive).

For `CC(=O)c1cc(I)c(O)c2ncccc12`, the GI50 in the test with Hs-578T is > 10 µM (inactive); in the test on MDA-N, 5.02 µM (inactive).

For `CN(C)CCOc1ccc2[nH]c(C(=O)N3CC(CCl)c4c3cc(N)c3ccccc43)cc2c1` (stereo not given), the GI50 in the test with Hs-578T and in the test with MDA-N was < 0.01 µM (active) in each case.

In the case of `CCOC(=O)CC(c1ccccc1)C(C)(C(=O)OCC)C(=O)OCC` (stereo not given), the GI50 in the test on Hs-578T was > 100 µM (inactive); with MDA-N it was > 10 µM (inactive).

Take `Cc1oc(N)c(S(=O)(=O)c2cc3ccccc3[n+]([O-])c2N)c1C`: the GI50 in the test with Hs-578T and in the test on MDA-N was > 100 µM (inactive) each time.

With `Cc1ccc(S(=O)(=O)N/N=C2/C3CCC(C3)C2c2ccccc2)cc1` (stereo not given), the GI50 with Hs-578T and in the test on MDA-N was > 100 µM (inactive) each time.

Take `Cc1ccc(C(=O)N/N=C(\N=N\c2cccc([N+](=O)[O-])c2)c2ccc(N(CCC#N)CCC#N)cc2C)cc1`: the GI50 is 23.4 µM (inactive) in the test with Hs-578T and 25.1 µM (inactive) with MDA-N.

On to `C/C(CC1C2CCCC1C2)=N\NC(N)=O` (stereo not given), for which the GI50 in the test with Hs-578T and in the test on MDA-N was > 100 µM (inactive) throughout.

As for `O=C(Cn1cc(Br)c(=O)[nH]c1=O)c1ccc(-c2ccccc2)cc1`, the GI50 is 29.6 µM (inactive) in the test with Hs-578T and > 100 µM (inactive) in the test on MDA-N.

Consider `CN(C)CCCCN1c2ccccc2Sc2ccc(N=[N+]=[N-])cc21`, for which the results for the GI50 in the test with Hs-578T and in the test on MDA-N were 5.22 µM (inactive) and 1.82 µM (inactive), respectively.

For `CCC(=O)ONC(=O)Cn1ccc([N+](=O)[O-])n1`, the GI50 with Hs-578T and with MDA-N was > 100 µM (inactive) throughout.

For the molecule `NC(=O)CC(/N=C1\C(=O)OC(C(O)CO)\C1=N/C(CC(N)=O)C(=O)O)C(=O)O` (stereo not given), the GI50 in the test on Hs-578T and with MDA-N was > 100 µM (inactive) throughout.

With `O=C1NC(=O)/C(=C/c2ccc(S(=O)(=O)N/N=C/c3ccccc3)cc2)N1`, the GI50 in the test with Hs-578T and with MDA-N was > 100 µM (inactive) throughout.

For `O=C(NCCNCCCNC(=O)c1cc(-c2ccccc2)nc2ccccc12)c1cccc(OCc2ccccc2)c1OCc1ccccc1`, the values for the GI50 with Hs-578T and in the test on MDA-N were 2.58 µM (inactive) and 1.66 µM (inactive), respectively.

Turning to `Cc1cc(-n2c(/C=C/c3ccc(Cl)cc3)nc3cc(Cl)ccc3c2=O)on1`, the GI50 in the test with Hs-578T is 8.32 µM (inactive); in the test on MDA-N, 24.8 µM (inactive).

Turning to `CC1CN=C(N(C(=O)Nc2ccc(Cl)c(Cl)c2)c2ccccc2)S1` (stereo not given), the GI50 with Hs-578T was > 100 µM (inactive); in the test on MDA-N it was 36 µM (inactive).

Consider `Nc1c2ccccc2nc2ccc(C(=O)Nc3ccc(S(N)(=O)=O)cc3)cc12`, for which the GI50 in the test with Hs-578T and with MDA-N was > 100 µM (inactive) throughout.

Regarding `Cc1c2c(n(CCc3ccccc3)c1C)N(C)N=C(C#N)S2(=O)=O`, the GI50 in the test with MDA-N is > 100 µM (inactive).

`CC(=O)NC(C)(C)C1CC=C(C)CC1` (stereo not given): the GI50 in the test with Hs-578T and with MDA-N was > 100 µM (inactive) throughout.

For the molecule `CC1(C)N=C(C2CCCN2C(=O)OCc2ccccc2)OC1=O` (stereo not given), the GI50 with Hs-578T and in the test on MDA-N was > 100 µM (inactive) throughout.

Take `Cc1ccc2c(c1)/C(=N/Nc1ccccc1[N+](=O)[O-])C(=O)N2`: the GI50 in the test on Hs-578T is 3.93 µM (inactive); in the test with MDA-N, 3.37 µM (inactive).

`[N-]=[N+]=NCc1cccc(Nc2cc(=O)[nH]c(=O)[nH]2)c1`: the GI50 in the test with Hs-578T and with MDA-N was > 100 µM (inactive) in each case.

`Cn1c(=O)c2c(nc(N/N=C3/SCC(=O)N3Cc3ccccc3)n2C)n(C)c1=O`: the results for the GI50 in the test with Hs-578T and in the test on MDA-N were 60.8 µM (inactive) and > 100 µM (inactive), respectively.

With `O=C(Cc1csc2[n+]1C(=O)/C(=C/c1ccc(Cl)cc1)S2)Nc1ccccc1`, the GI50 in the test with Hs-578T was 27.7 µM (inactive); with MDA-N, 30.4 µM (inactive).

For the molecule `Fc1ccccc1C1SCc2nc3cc4ccccc4cc3n21` (stereo not given), the GI50 in the test with Hs-578T is 26.5 µM (inactive); with MDA-N, 79.1 µM (inactive).

Turning to `O=C(O)C1C(Br)(c2ccccc2)C1(Br)c1ccccc1` (stereo not given), the GI50 in the test with Hs-578T is 37.8 µM (inactive).

For `Cn1nc(C(=O)N2CC(CCl)c3c2cc(N)c2ccccc32)cc1NC(=O)Nc1cc(C(=O)N2CC(CCl)c3c2cc(N)c2ccccc32)nn1C` (stereo not given), the GI50 in the test on MDA-N is 0.157 µM (active).

`CC1CCC2(CC1)NC1=C(CC(C)CC1)C1=C2CC(C)CC1` (stereo not given): the figures for the GI50 in the test with Hs-578T and in the test with MDA-N were 26.9 µM (inactive) and 31.3 µM (inactive), respectively.

With `CC(=O)O[C@H]1[C@H](OC(=O)CC(C)(O)CC(=O)O)C[C@]2(C)C3=C(CCC2C1(C)C)[C@]1(C)CC[C@H]([C@H]2CC[C@H](C(C)(C)O)OC2O)[C@@]1(C)[C@@H](O)C3` (stereo not given in full), the GI50 in the test on Hs-578T was 16 µM (inactive); in the test on MDA-N it was 18.1 µM (inactive).

For `Cc1cc(NC2=NCCO2)c2c(c1C)CCCC2`, in the test with Hs-578T, the GI50 was 10.8 µM (inactive).

`[N-]=[N+]=NCc1nc(N)c2c3c(sc2n1)CCCC3`: the results for the GI50 in the test with Hs-578T and in the test on MDA-N were 2.72 µM (inactive) and 2.51 µM (inactive), respectively.

Turning to `CC(C)=CCC/C(C)=C/CC/C(C)=C/CC/C(=C/CC/C(C)=C\CC/C(C)=C/CC/C(C)=C/CC/C(C)=C/Cc1cc(O)ccc1O)CO`, the values for the GI50 in the test on Hs-578T and in the test with MDA-N were 2.51 µM (inactive) and 3.21 µM (inactive), respectively.

For the molecule `COc1cc(/C=C2\CCC(C)C3=C2N=c2s/c(=C/c4ccc(Cl)cc4)c(=O)n2C3c2cc(OC)c(OC)c(OC)c2)cc(OC)c1OC` (stereo not given), the GI50 with Hs-578T and in the test with MDA-N was > 100 µM (inactive) throughout.

With `CC(C)C1=CC23CCC4C(C)(C(=O)O)CCCC4(C)C2CC1C1C(=O)N(c2ccc(Cc4ccc(N5C(=O)C6C7CC8C9(C)CCCC(C)(C(=O)O)C9CCC8(C=C7C(C)C)C6C5=O)cc4)cc2)C(=O)C13` (stereo not given), the values for the GI50 with Hs-578T and in the test with MDA-N were 10.7 µM (inactive) and 8.93 µM (inactive), respectively.

Consider `C[C@H](Nc1nc(N)c(N=O)c(=O)n1C)C(=O)O`, for which the GI50 with Hs-578T and in the test on MDA-N was > 10 µM (inactive) in each case.

For the molecule `O=c1cccc2n1C[C@H]1CNC[C@H]2C1`, the GI50 in the test with Hs-578T and in the test with MDA-N was > 100 µM (inactive) in each case.

For `CCCCN=C(OC1C=CCCC1)SC` (stereo not given), in the test on MDA-N, the GI50 was > 100 µM (inactive).

As for `CN(C)c1nc2sc3c(c2c(=O)o1)CCCC3`, the results for the GI50 with Hs-578T and in the test with MDA-N were 16.7 µM (inactive) and 38.2 µM (inactive), respectively.
